ChEMBL document CHEMBL4371067, “Discovery of N-substituted 7-azaindoles as Pan-PIM kinases inhibitors - Lead optimization - Part III” (Bioorg Med Chem Lett, 2019)
≈ marks a conversion by molar mass, not a printed value. Calls of active or inactive are those of the source. No cut-off for these calls is given here.

Assays:
[1] = target: Serine/threonine-protein kinase pim-1 (Homo sapiens, UniProt P11309); experiment: Inhibition of PIM1 (unknown origin) assessed as reduction in BAD phosphorylation at Ser-112 residue by TR-FRET assay
[2] = target: Serine/threonine-protein kinase pim-2 (Homo sapiens, UniProt Q9P1W9); experiment: Inhibition of PIM2 (unknown origin) assessed as reduction in BAD phosphorylation at Ser-112 residue by TR-FRET assay
[3] = Thermodynamic solubility in pH 7.4 solution; format: physicochemical; settings: buffer; for solubility thermodynamic: read-out: Therm_solubility
[4] = target: Serine/threonine-protein kinase PIM (Homo sapiens, UniProt P11309+Q9P1W9+Q86V86); experiment: Inhibition of PIM in human KG1 cells assessed as reduction in pS6 level; format: cell-based
[5] = system: KG-1; experiment: Antiproliferative activity against human KG1 cells; format: functional, cell-based
[6] = Permeability in human Caco2/TC7 cells at 5 uM; format: ADME, cell-based; settings: for Papp at 5 µM: Caco-2, read-out: permeability
[7] = Efflux ratio of permeability in human Caco2/TC7 cells at 5 uM; format: ADME, cell-based; settings: Caco-2
[8] = target: T1, hERG (KCNH2) (Homo sapiens, UniProt Q12809); experiment: Inhibition of human ERG at 10 uM relative to control
[9] = target: T1, hERG (KCNH2); experiment: Inhibition of human ERG at 1 uM relative to control
[10] = Clearance in human liver microsomes assessed as drug extraction at 5 uM; format: ADME, Microsome; settings: for hepatic extraction ratio at 5 µM: liver microsomes, read-out: CLH
[11] = system: Mus musculus; experiment: In vivo inhibition of PIM in mouse xenografted with human KG1 cells assessed as reduction in phosphorylated BAD level at 25 mg/kg, po administered as single dose and measured up to 24 hrs post dose relative to control; format: functional
[12] = Clearance in mouse liver microsomes assessed as drug extraction at 5 uM; format: ADME, Microsome
[13] = AUC (0 to infinity) in rat at 3 mg/kg, iv administered as single dose; format: ADME, organism-based; set-up: dose 3 mg/kg, route intravenous, time infinity; settings: in vivo
[14] = AUC (0 to infinity) in rat at 10 mg/kg, po administered as single dose; format: ADME, organism-based; set-up: dose 10 mg/kg, route oral, time infinity; settings: in vivo
[15] = Cmax in rat at 10 mg/kg, po administered as single dose; format: ADME, organism-based; set-up: dose 10 mg/kg, route oral; settings: in vivo
[16] = Half life in rat at 3 mg/kg, iv administered as single dose; format: ADME, organism-based; settings: in vivo
[17] = Half life in rat at 10 mg/kg, po administered as single dose; format: ADME, organism-based; settings: in vivo
[18] = Oral bioavailability in rat at 10 mg/kg administered as single dose; format: ADME, organism-based; settings: in vivo
[19] = Clearance in rat at 3 mg/kg, iv administered as single dose; format: ADME, organism-based; settings: in vivo
[20] = Volume of distribution at steady state in rat at 3 mg/kg, iv administered as single dose; format: ADME, organism-based; settings: in vivo, read-out: Vdss
[21] = target: Voltage-gated inwardly rectifying potassium channel KCNH2 (Homo sapiens, UniProt Q12809); experiment: Inhibition of human ERG
[22] = target: Glycogen synthase kinase-3 beta (Homo sapiens) (UniProt P49841); experiment: Inhibition of GSK3beta (unknown origin) at 0.1 uM relative to control
[23] = target: Cyclin-dependent kinase 5 (Homo sapiens) (UniProt Q00535); experiment: Inhibition of CDK5 (unknown origin) at 0.1 uM relative to control
[24] = target: Glycogen synthase kinase-3 alpha (Homo sapiens) (UniProt P49840); experiment: Inhibition of GSK3alpha (unknown origin) at 0.1 uM relative to control
[25] = target: Cyclin-dependent kinase 3 (Homo sapiens) (UniProt Q00526); experiment: Inhibition of CDK3 (unknown origin) at 0.1 uM relative to control
[26] = target: Cyclin-dependent kinase 2 (Homo sapiens) (UniProt P24941); experiment: Inhibition of CDK2 (unknown origin) at 0.1 uM relative to control
[27] = target: T2, Dual specificity tyrosine-phosphorylation-regulated kinase 3 (Homo sapiens) (UniProt O43781); experiment: Inhibition of DYRK3 (unknown origin) at 0.1 uM relative to control
T2 sequence (whole entry): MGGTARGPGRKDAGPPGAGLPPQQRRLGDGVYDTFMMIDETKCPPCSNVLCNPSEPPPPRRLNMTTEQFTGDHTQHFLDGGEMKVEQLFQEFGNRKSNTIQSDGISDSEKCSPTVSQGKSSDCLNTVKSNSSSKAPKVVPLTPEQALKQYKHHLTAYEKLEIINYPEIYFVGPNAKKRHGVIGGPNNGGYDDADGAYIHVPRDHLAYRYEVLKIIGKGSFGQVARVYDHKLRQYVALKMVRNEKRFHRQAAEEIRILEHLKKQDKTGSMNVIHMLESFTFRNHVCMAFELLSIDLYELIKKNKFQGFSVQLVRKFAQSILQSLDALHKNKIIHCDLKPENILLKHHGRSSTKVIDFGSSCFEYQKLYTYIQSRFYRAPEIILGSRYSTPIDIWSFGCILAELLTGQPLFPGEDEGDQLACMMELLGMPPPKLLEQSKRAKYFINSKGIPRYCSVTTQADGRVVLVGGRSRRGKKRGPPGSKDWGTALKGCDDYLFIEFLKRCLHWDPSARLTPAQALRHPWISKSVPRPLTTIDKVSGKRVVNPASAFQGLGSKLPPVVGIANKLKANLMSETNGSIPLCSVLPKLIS

[28] = target: Ribosomal protein S6 kinase alpha-2 (Homo sapiens) (UniProt Q15349); experiment: Inhibition of RSK3 (unknown origin) at 0.1 uM relative to control
[29] = target: Cyclin-dependent kinase 1 (Homo sapiens) (UniProt P06493); experiment: Inhibition of CDK1 (unknown origin) at 0.1 uM relative to control
[30] = target: Glycogen synthase kinase-3 beta (Homo sapiens) (UniProt P49841); experiment: Inhibition of GSK3beta (unknown origin) at 1 uM relative to control
[31] = target: Cyclin-dependent kinase 5 (Homo sapiens) (UniProt Q00535); experiment: Inhibition of CDK5 (unknown origin) at 1 uM relative to control
[32] = target: Glycogen synthase kinase-3 alpha (Homo sapiens) (UniProt P49840); experiment: Inhibition of GSK3alpha (unknown origin) at 1 uM relative to control
[33] = target: Cyclin-dependent kinase 3 (Homo sapiens) (UniProt Q00526); experiment: Inhibition of CDK3 (unknown origin) at 1 uM relative to control
[34] = target: Cyclin-dependent kinase 2 (Homo sapiens) (UniProt P24941); experiment: Inhibition of CDK2 (unknown origin) at 1 uM relative to control
[35] = target: T2, Dual specificity tyrosine-phosphorylation-regulated kinase 3 (Homo sapiens); experiment: Inhibition of DYRK3 (unknown origin) at 1 uM relative to control
[36] = target: Ribosomal protein S6 kinase alpha-2 (Homo sapiens) (UniProt Q15349); experiment: Inhibition of RSK3 (unknown origin) at 1 uM relative to control
[37] = target: Cyclin-dependent kinase 1 (Homo sapiens) (UniProt P06493); experiment: Inhibition of CDK1 (unknown origin) at 1 uM relative to control
[38] = system: Mus musculus; experiment: In vivo inhibition of PIM in mouse xenografted with human KG1 cells assessed as reduction in phosphorylated BAD level at 25 mg/kg, po administered as single dose and measured at 8 hrs post dose relative to control; format: functional; settings: KG-1, po
[39] = Drug uptake in tumor of mouse xenografted with human KG1 cells at 25 mg/kg, po administered as single dose and measured at 8 hrs post dose; format: ADME, organism-based, Neoplasm; settings: read-out: Drug uptake
[40] = Drug uptake in tumor of mouse xenografted with human KG1 cells at 25 mg/kg, po administered as single dose and measured at 24 hrs post dose; format: ADME, organism-based, Neoplasm; settings: read-out: Drug uptake
[41] = Plasma concentration in mouse xenografted with human KG1 cells at 25 mg/kg, po administered as single dose and measured at 8 hrs post dose; format: ADME, organism-based
[42] = Plasma concentration in mouse xenografted with human KG1 cells at 25 mg/kg, po administered as single dose and measured at 24 hrs post dose; format: ADME, organism-based
[43] = Protein binding in mouse plasma; format: ADME, cell-free; settings: read-out: PPB (converted)
[44] = Toxicity in nude mouse xenografted with human KG1 cells assessed as body weight loss at 12.5 to 50 mg/kg, po bid for 18 days relative to control; format: organism-based; settings: in vivo, 432 h
[45] = system: KG-1; experiment: Antitumor activity against human KG1 cells xenografted in nude mouse assessed as tumor growth at 12.5 mg/kg, po bid for 18 days relative to control; format: functional
[46] = system: KG-1; experiment: Antitumor activity against human KG1 cells xenografted in nude mouse assessed as tumor growth at 25 mg/kg, po bid for 18 days relative to control; format: functional
[47] = system: KG-1; experiment: Antitumor activity against human KG1 cells xenografted in nude mouse assessed as tumor growth at 50 mg/kg, po bid for 18 days relative to control; format: functional
[48] = Cmax in nude mouse xenografted with human KG1 cells at 12.5 mg/kg, po bid for 18 days measured at 8 hrs post last dose; format: ADME, organism-based; set-up: dose 12.5 mg/kg, route oral; settings: in vivo
[49] = Cmax in nude mouse xenografted with human KG1 cells at 25 mg/kg, po bid for 18 days measured at 8 hrs post last dose; format: ADME, organism-based; set-up: dose 25 mg/kg, route oral; settings: in vivo
[50] = Cmax in nude mouse xenografted with human KG1 cells at 50 mg/kg, po bid for 18 days measured at 8 hrs post last dose; format: ADME, organism-based; set-up: dose 50 mg/kg, route oral; settings: in vivo

Q: Which IC50 [1] does the source give for `NC(=O)c1cc(Cl)c2c(Cl)c(C#CC3CC3)n([C@H]3CCCNC3)c2n1` here?
A: 0.7 nM

Q: What about the IC50 [2] of the same compound?
A: 9 nM

Q: And the solubility thermodynamic [3]?
A: 13 µM (≈ 4.9 µg/mL)

Q: What about the EC50 [4] of the same compound?
A: 28 nM

Q: What about the EC50 ([5]; Homo sapiens, KG-1) of the same compound?
A: 207 nM

Q: What about the Papp at 5 µM [6] of the same compound?
A: 3 ×10⁻⁶ cm/s

Q: What about the efflux ratio at 5 µM [7] of the same compound?
A: 2.5

Q: What about the inhibition at 10 µM [8] of the same compound?
A: 97%

Q: What about the inhibition at 1 µM [9] of the same compound?
A: 53%

Q: And the hepatic extraction ratio at 5 µM [10]?
A: 0.21

Q: What about the inhibition [11] of the same compound?
A: Active

Q: Which IC50 [1] does the source give for `NC(=O)c1cc(Cl)c2c(Cl)c(C#CC3CCCO3)n([C@H]3CCCNC3)c2n1` (stereo in doubt; 20b) here?
A: 2.2 nM

Q: And the Ki [1]?
A: 1.3 nM

Q: And the IC50 [2]?
A: 7.4 nM

Q: What about the Therm_solubility [3] of the same compound?
A: 333 µM

Q: What about the EC50 [4] of the same compound?
A: 69 nM

Q: And the EC50 ([5]; kg-1)?
A: 91 nM

Q: What about the permeability ([6]; caco2/tc7, 5 µM, 5 µM) of the same compound?
A: 33 ×10⁻⁷ cm/s

Q: And the CLH ([10]; microsomes, 5 µM)?
A: 24%

Q: What about the CLH ([12]; microsomes, 5 µM) of the same compound?
A: 37%

Q: And the AUC(0-inf) [13]?
A: 324 ng·h/mL

Q: And the AUC(0-inf) [14]?
A: 326 ng·h/mL

Q: What about the Cmax [15] of the same compound?
A: 54 ng/mL

Q: What about the half-life [16] of the same compound?
A: 2.32 h

Q: What about the half-life [17] of the same compound?
A: 3.63 h

Q: And the bioavailability [18]?
A: 30%

Q: What about the clearance [19] of the same compound?
A: 150 mL/min/kg

Q: And the Vd [20]?
A: 19.6 L/kg

Q: What does the source list for `COCCC#Cc1c(Cl)c2c(Cl)cc(C(N)=O)nc2n1[C@H]1CCCNC1`?
A: IC50 [1]: 0.8 nM; Ki [1]: 0.4 nM; IC50 [2]: 5.1 nM; solubility thermodynamic [3]: 86 µM (≈ 34 µg/mL); IC50 [21]: 3000 nM; EC50 [4]: 27 nM; EC50 ([5]; Homo sapiens, KG-1): 39 nM; Papp at 5 µM [6]: 4.1 ×10⁻⁶ cm/s; hepatic extraction ratio at 5 µM [10]: 0.23; hepatic extraction ratio at 5 µM ([12]; liver microsomes, read-out: CLH): 0.5; AUC(0-inf) [13]: 405 ng·h/mL; AUC(0-inf) [14]: 643 ng·h/mL; Cmax [15]: 92 ng/mL; half-life [16]: 2.75 h; half-life [17]: 3.59 h; bioavailability [18]: 46%; clearance [19]: 113 mL/min/kg; Vd [20]: 18.6 L/kg; inhibition [22]: 48%; inhibition [23]: 88%; inhibition [24]: 23%; inhibition [25]: 24%; inhibition [26]: 26%; inhibition [27]: 15%; inhibition [28]: 20%; inhibition [29]: 14%; inhibition [30]: 90%; inhibition [31]: 89%; inhibition [32]: 81%; inhibition [33]: 73%; inhibition [34]: 71%; inhibition [35]: 68%; inhibition [36]: 54%; inhibition [37]: 51%; inhibition in vivo at 25 mg/kg [38]: ≤ 64%; inhibition in vivo at 25 mg/kg ([11]; KG-1, po): 56%; concentration at 8 h [39]: 24000 nM; concentration at 24 h [40]: 7900 nM; concentration at 8 h [41]: 920 nM; concentration at 24 h [42]: 60 nM; fraction unbound [43]: 0.02; Activity [44]: < 10%; T/C [45]: 60%; T/C [46]: 56%; T/C [47]: 33%; Cmax [48]: 140 nM; Cmax [49]: 320 nM; Cmax [50]: 520 nM
